Source: patent publication US9776972B2, “Pyrazole derivatives as arginine methyltransferase inhibitors and uses thereof” (priority 2013, dated 2017)

Legend:
human PRMT8 = human PRMT8 (Homo sapiens, UniProt Q9NR22); assay: PRMT8 Biochemical Assay (3H-SAM Flashplate, peptide substrate); conditions: single experiment or average of multiple experiments
Summary of the method: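 E. coli-expressed human PRMT8 (GST removed) was preincubated with compound for 30 min at room temperature in 20 mM Bicine pH 7.6 with TCEP, BSG and Tween 20. 3H-SAM and a biotinylated H4 31-45 peptide were then added, and the reaction was stopped with cold SAM. Labelled peptide was captured on streptavidin Flashplates; % inhibition was calculated against DMSO and SAH controls and fitted to a 3- or 4-parameter curve.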

human PRMT6 = target: T1, human PRMT6 (Homo sapiens, UniProt Q96LA8); assay: PRMT6 Biochemical Assay (3H-SAM Flashplate, peptide substrate); conditions: Biochemical IC50 PRMT6, single experiment or average of multiple experiments
T1 construct: Flag-PRMT6-His; made in house; host or cells: HEK 293F cells (BacMam baculovirus)
T1 sequence (Q96LA8 with tags, fused parts or gaps): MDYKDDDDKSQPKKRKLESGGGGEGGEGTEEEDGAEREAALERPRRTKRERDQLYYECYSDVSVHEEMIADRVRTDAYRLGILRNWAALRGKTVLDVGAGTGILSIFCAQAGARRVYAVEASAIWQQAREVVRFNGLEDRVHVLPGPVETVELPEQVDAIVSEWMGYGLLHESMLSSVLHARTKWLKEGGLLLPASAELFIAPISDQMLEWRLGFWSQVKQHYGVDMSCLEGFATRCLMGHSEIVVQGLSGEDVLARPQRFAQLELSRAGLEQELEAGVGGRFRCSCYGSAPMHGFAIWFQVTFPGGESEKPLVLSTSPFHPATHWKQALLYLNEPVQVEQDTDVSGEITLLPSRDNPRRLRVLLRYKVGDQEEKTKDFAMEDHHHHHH
Summary of the method: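 Flag-PRMT6-His, expressed in mammalian cells from a BacMam vector, was preincubated with compound for 30 min at room temperature in Bicine pH 7.6 buffer with TCEP, BSG and Tween 20. Reactions were started with ³H-SAM and a biotinylated histone H4 36-50 peptide, then stopped with cold SAM (400 uM final). Labeled peptide was captured on streptavidin Flashplates, counted, and fitted to a 3- or 4-parameter curve.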

Chain of human PRMT8 (Q9NR22 whole entry): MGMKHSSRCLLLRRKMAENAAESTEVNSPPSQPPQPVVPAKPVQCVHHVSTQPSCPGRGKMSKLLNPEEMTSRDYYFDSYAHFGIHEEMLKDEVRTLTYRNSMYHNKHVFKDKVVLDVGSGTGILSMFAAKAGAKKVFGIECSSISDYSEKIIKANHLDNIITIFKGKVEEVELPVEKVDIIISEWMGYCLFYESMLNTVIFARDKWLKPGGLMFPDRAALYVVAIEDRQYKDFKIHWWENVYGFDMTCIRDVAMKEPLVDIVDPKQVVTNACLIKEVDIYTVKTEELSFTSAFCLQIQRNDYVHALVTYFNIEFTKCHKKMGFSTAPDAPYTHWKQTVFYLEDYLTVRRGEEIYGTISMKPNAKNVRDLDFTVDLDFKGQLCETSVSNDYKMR

| Structure (SMILES) | IC50 (human PRMT8) [nM] | IC50 (human PRMT6) [nM] |
| --- | --- | --- |
| CC(C)CN(C)C(=O)c1ccc(-c2n[nH]cc2CN(C)CCN)cc1 [Compound 164] | 2180 | 41.8 |
| Cc1[nH]nc(-c2ccc(F)cc2)c1CN(C)CCN [Compound 169] | 2990 | 85 |
| CC(C)Cc1ccc(-c2c[nH]nc2CN(C)CCN)cc1 [Compound 170] | 160 | 59.3 |
| NCCN(CCO)Cc1c[nH]nc1-c1ccc(F)cc1 [Compound 171] | 2630 | 2420 |
| CN(CCN)Cc1c[nH]nc1-c1ccc(OCCN2CCOCC2)cc1 [Compound 172] | 3260 | 26.4 |
| CN(CCN)Cc1c[nH]nc1-c1ccc2c(c1)NC(=O)CO2 [Compound 173] | 3080 | 14.9 |
| CNCCN(C)Cc1c[nH]nc1-c1ccc(C(F)(F)F)cc1 [Compound 174] | 228 | 15 |
| CNCCN(C)Cc1c[nH]nc1-c1ccc(Cl)c(F)c1 [Compound 182] | 271 | 5.48 |
| CN(CCN(C)C1CC1)Cc1c[nH]nc1-c1ccc(C#N)cc1 [Compound 184] | 3030 | 2380 |
| CN(CCN1CCC1)Cc1c[nH]nc1-c1ccc(C#N)cc1 [Compound 185] | 4370 | 407 |
| CCC(=O)N1CCN(c2ccc(-c3n[nH]cc3CN(C)CCN)cc2)CC1 [Compound 189] | 2990 | 29.5 |
| CC(C)CN1C(=O)COc2ccc(-c3n[nH]cc3CN(C)CCN)cc21 [Compound 191] | 4110 | 435 |
| CN(CCN)Cc1c[nH]nc1-c1ccc2c(c1)OCC(=O)N2C [Compound 192] | 2010 | 34.6 |
| CC(C)CN1C(=O)COc2cc(-c3n[nH]cc3CN(C)CCN)ccc21 [Compound 193] | 845 | 247 |
| CN(CCN)Cc1c[nH]nc1-c1ccc2c(c1)N(C)C(=O)CO2 [Compound 196] | 2580 | 28.7 |
| Cc1cc(-c2n[nH]cc2CN(C)CCN)cc(C)c1OC(C)C [Compound 199, N^1-((3-(4-isopropoxy-3,5-dimethylphenyl)-1H-pyrazol-4-yl)methyl)-N^1-methylethane-1,2-diamine] | 459 | 103 |
| CN(CCN)Cc1n[nH]cc1-c1ccc(Oc2ccccc2)cc1 [Compound 203] | 185 | 2.42 |
| CNCCN(C)Cc1n[nH]cc1-c1ccc(Oc2ccccc2)cc1 [Compound 204] | 69.3 | 1.14 |
| CN(CCN)Cc1c[nH]nc1-c1ccc(Oc2cccc(F)c2)cc1 [Compound 205] | 286 | 1.53 |

Other lines, results leading:

| IC50 (human PRMT8) [nM] | IC50 (human PRMT6) [nM] | Structure (SMILES) |
| --- | --- | --- |
| 2100 | 96.5 | Cc1ccccc1-c1n[nH]cc1CN(C)CCN [Compound 161] |
| 273 | 7.71 | Cc1ccc(-c2n[nH]cc2CN(C)CCN)cc1 [Compound 162] |
| 1430 | 62.6 | CCN(C)C(=O)c1ccc(-c2n[nH]cc2CN(C)CCN)cc1 [Compound 163] |
| 191 | 15.6 | CCOc1ccc(-c2n[nH]cc2CN(C)CCN)cc1 [Compound 166] |
| 284 | 17.4 | COCCOc1ccc(-c2n[nH]cc2CN(C)CCN)cc1 [Compound 167] |
| 1700 | 77.6 | CC(C)Oc1cccc(-c2n[nH]cc2CN(C)CCN)c1 [Compound 187] |
| 2890 | 37.4 | CC(C)Oc1cc(-c2n[nH]cc2CN(C)CCN)ccc1F [Compound 188] |
| 374 | 15.3 | CN(CCN)Cc1c[nH]nc1-c1ccc(OCCO)cc1 [Compound 194] |
| 402 | 9.24 | CN(CCN)Cc1c[nH]nc1-c1ccc(OCCCO)cc1 [Compound 195] |
| 2100 | 67.2 | CCNC(=O)c1cccc(-c2n[nH]cc2CN(C)CCN)c1 [Compound 197] |
| 187 | 2.9 | CN(CCN)Cc1c[nH]nc1-c1ccc(Oc2ccccc2)c(C#N)c1 [Compound 202] |
